Reference: patent US12011439B2, “Combination therapy using C—C chemokine receptor 4 (CCR4) antagonists and one or more immune checkpoint inhibitors” (CHEMOCENTRYX, INC., priority 2018, dated 2024)

Tests used:
mCCR4 [1] = target: T1, mCCR4 (Mus musculus, UniProt P51680); assay: CCL22 chemotaxis, mouse CCR4 cells; assay type: cell-based; conditions: Mouse mCCR4-Baf3 cells
T1 sequence (P51680 1-360): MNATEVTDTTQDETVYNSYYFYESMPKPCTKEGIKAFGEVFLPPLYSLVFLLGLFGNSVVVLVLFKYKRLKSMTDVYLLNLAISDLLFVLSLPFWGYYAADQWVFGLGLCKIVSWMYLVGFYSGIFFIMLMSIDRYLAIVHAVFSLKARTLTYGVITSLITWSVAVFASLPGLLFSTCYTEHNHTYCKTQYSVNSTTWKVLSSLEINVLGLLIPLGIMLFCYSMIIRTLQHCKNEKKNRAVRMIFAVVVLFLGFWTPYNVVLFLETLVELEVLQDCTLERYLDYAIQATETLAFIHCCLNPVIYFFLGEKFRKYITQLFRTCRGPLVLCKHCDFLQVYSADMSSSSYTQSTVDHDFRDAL

CCR4 [2] = target: T2, CCR4 (Homo sapiens, UniProt P51679); assay: CCL22 chemotaxis, human cells; assay type: cell-based
T2 sequence (P51679 1-360): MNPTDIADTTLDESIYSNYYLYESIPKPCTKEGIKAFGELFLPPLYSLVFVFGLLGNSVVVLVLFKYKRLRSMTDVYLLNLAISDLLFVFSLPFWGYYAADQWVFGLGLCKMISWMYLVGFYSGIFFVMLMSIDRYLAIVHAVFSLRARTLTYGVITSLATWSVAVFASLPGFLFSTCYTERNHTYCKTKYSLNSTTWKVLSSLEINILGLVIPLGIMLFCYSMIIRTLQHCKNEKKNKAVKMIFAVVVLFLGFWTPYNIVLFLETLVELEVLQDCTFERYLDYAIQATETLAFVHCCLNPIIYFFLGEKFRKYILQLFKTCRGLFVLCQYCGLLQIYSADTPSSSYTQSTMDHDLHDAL

[3] = Plasma compound concentrations at trough in the KCM study; assay type: in vivo, mice; conditions: day 12, KCM model
mCCR4 [4] = target: T1, mCCR4; assay: 125I-CCL17 binding, mouse CCR4 cells; conditions: Mouse mCCR4-293 cells, buffer
CCR4 [5] = target: T2, CCR4; assay: 125I-CCL17 binding, human cells; conditions: buffer

SMILES: C[C@@H](Nc1cc(C2CCN([C@H]3CCCN(CCC(=O)O)C3)CC2)ccc1Cl)c1ccc(Cl)cc1Cl [Compound 1]
- Chemotaxis A2 (mCCR4 [1]; 100% serum): 60 nM
- Chemotaxis A2 (mCCR4 [1]; buffer): 4 nM
- Chemotaxis A2 (CCR4 [2]; Human CEM cells, 100% serum): 20 nM
- Chemotaxis A2 (CCR4 [2]; Human CEM cells, buffer): 2 nM
- Chemotaxis A2 (CCR4 [2]; Human lymphocytes, 100% serum): 20 nM
- Chemotaxis A2 (CCR4 [2]; Human lymphocytes, buffer): 10 nM
- Plasma compound concentrations at trough [3]: Adequate compound levels
- IC50 (mCCR4 [4]): 27 nM
- IC50 (CCR4 [5]; Human CEM cells): 23 nM
- IC50 (CCR4 [5]; Human lymphocytes): 37 nM
